Source: patent US20150232452A1, “NOVEL RAF KINASE INHIBITORS” (Ruga Corporation, priority 2012, published 2015)

Tests used:
[1] = biological target: Braf V600E (recombinant V600E mutated B-RAF) (Homo sapiens, UniProt P15056, V600E); assay: In vitro assay for determining inhibition of mutant B-RAF kinase; type: biochemical; settings: 10 nM recombinant V600E mutated B-RAF, 1 μM MEK (K97R) as substrate
Method: In Vitro Assay for Determining Inhibition of B-RAF Kinase or Mutant B-RAF Kinase
Solutions of varying concentrations of test compounds or vehicle are added to 10 nM recombinant V600E mutated B-RAF proteins incubated in the presence of different concentrations of ATP and 1 μM MEK (K97R) as substrate, as previously described (Wilhelm, S. M., et al., Cancer Res., 64: 7099-7109, 2004; Mason, C. S., et al., EMBO J. 18: 2137-2148, 1999; Marais, R., et al., J. Biol. Chem., 272: 4378-4383, 1997). At least triplicate determinations for each individual test compound concentration are made and data is plotted as mean±standard deviation relative to the control vehicle.

[2] = test system: A375 cells (V600E activated B-RAF); assay: In vitro assay for tumor cell growth (MTT, 72 hours incubation); type: cell-based; settings: Homo sapiens, A-375, 72 h, growth inhibition of A375 cells, unit inferred
Method: In Vitro Assays for Tumor Cell Growth
Cell lines are obtained from the American Type Tissue Culture Collection (Maryland, USA) and cultured in media containing heat-inactivated 10% fetal bovine serum. Cell cultures are also maintained in 10 U/mL penicillin, 100 μg/mL streptomycin and 2 mM glutamine. At least triplicate determinations for each individual test compound concentration are made and data is plotted as mean±standard deviation relative to the control vehicle.

Sequence of Braf V600E (recombinant V600E mutated B-RAF) (P15056 whole entry V600E): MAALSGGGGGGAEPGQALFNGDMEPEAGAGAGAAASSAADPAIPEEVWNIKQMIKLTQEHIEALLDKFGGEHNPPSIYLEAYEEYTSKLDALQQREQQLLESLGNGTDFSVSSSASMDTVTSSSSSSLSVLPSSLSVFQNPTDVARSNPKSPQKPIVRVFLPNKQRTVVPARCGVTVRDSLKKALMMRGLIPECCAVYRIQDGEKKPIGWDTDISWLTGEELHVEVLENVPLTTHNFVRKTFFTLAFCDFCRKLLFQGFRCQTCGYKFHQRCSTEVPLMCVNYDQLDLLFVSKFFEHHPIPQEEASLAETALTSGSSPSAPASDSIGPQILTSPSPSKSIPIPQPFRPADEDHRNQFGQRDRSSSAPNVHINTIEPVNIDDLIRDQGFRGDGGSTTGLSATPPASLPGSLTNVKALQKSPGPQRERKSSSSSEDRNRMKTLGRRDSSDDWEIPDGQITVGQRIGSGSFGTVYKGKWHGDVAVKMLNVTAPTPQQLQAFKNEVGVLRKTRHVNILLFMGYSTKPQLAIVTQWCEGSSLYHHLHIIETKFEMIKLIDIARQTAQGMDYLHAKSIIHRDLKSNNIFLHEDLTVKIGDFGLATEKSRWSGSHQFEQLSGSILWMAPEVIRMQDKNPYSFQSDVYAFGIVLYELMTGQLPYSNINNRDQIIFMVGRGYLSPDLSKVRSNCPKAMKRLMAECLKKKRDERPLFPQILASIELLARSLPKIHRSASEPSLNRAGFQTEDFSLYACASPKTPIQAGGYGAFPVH

Compound	IC50 [1]	IC50 [2]
CCn1cc(-c2cccc(NC(=O)Nc3ccccc3Cl)c2)c(-c2ccncc2)n1 [Example 13, 1-(2-chlorophenyl)-3-(3-(1-ethyl-3-(pyridin-4-yl)-1H-pyrazol-4-yl)phenyl)urea]	58.7 nM	–
CCn1cc(-c2cccc(NC(=O)Nc3ccc(Cl)c(C(F)(F)F)c3)c2)c(-c2ccncc2)n1 [Example 9, 1-(4-chloro-3-(trifluoromethyl)phenyl)-3-(3-(1-ethyl-3-(pyridin-4-yl)-1H-pyrazol-4-yl)phenyl)urea]	3.01 nM	1780 nM
CCn1cc(-c2cccc(NC(=O)Nc3ccccc3F)c2)c(-c2ccncc2)n1 [Example 15, 1-(3-(1-ethyl-3-(pyridin-4-yl)-1H-pyrazol-4-yl)phenyl)-3-(2-fluorophenyl)urea]	53.8 nM	–
CC(C)(C)c1nc(-c2ccnc(N)n2)c(-c2cccc(NC(=O)Nc3ccc(C(F)(F)F)cc3)c2F)s1 [Example 2, 1-(3-(4-(2-aminopyrimidin-4-yl)-2-(tert-butyl)thiazol-5-yl)-2-fluorophenyl)-3-(4-(trifluoromethyl)phenyl)urea]	3980 nM	> 10000 nM
CCn1cc(-c2cccc(NC(=O)Nc3cccc(C(F)(F)F)c3)c2)c(-c2ccncc2)n1 [Example 7, 1-(3-(1-ethyl-3-(pyridin-4-yl)-1H-pyrazol-4-yl)phenyl)-3-(3-(trifluoromethyl)phenyl)urea]	4.44 nM	1750 nM
CCn1cc(-c2cccc(NC(=O)Nc3ccc(Cl)cc3Cl)c2)c(-c2ccncc2)n1 [Example 12, 1-(2,4-dichlorophenyl)-3-(3-(1-ethyl-3-(pyridin-4-yl)-1H-pyrazol-4-yl)phenyl)urea]	6.39 nM	1370 nM
CCn1cc(-c2cccc(NC(=O)Nc3ccc(C)cc3)c2)c(-c2ccncc2)n1 [Example 5, 1-(3-(1-ethyl-3-(pyridin-4-yl)-1H-pyrazol-4-yl)phenyl)-3-(p-tolyl)urea]	1.61 nM	815 nM
CCn1cc(-c2cccc(NC(=O)Nc3ccc(C(C)(C)C)cc3)c2)c(-c2ccncc2)n1 [Example 4, 1-(4-(tert-butyl)phenyl)-3-(3-(1-ethyl-3-(pyridin-4-yl)-1H-pyrazol-4-yl)phenyl)urea]	6.53 nM	506 nM
CCn1cc(-c2cccc(NC(=O)Nc3ccc(C(F)(F)F)cc3)c2)c(-c2ccncc2)n1 [Example 3, 1-(3-(1-ethyl-3-(pyridin-4-yl)-1H-pyrazol-4-yl)phenyl)-3-(4-(trifluoromethyl)phenyl)urea]	0.72 nM	202 nM
CCn1cc(-c2cccc(NC(=O)Nc3ccc(I)cc3)c2)c(-c2ccncc2)n1 [Example 10, 1-(3-(1-ethyl-3-(pyridin-4-yl)-1H-pyrazol-4-yl)phenyl)-3-(4-iodophenyl)urea]	2.2 nM	49 nM
CCn1cc(-c2cccc(NC(=O)Nc3ccc(Cl)cc3)c2)c(-c2ccncc2)n1 [Example 16, 1-(4-chlorophenyl)-3-(3-(1-ethyl-3-(pyridin-4-yl)-1H-pyrazol-4-yl)phenyl)urea]	2.31 nM	272 nM
CC(C)(C)c1nc(-c2ccnc(N)n2)c(-c2cccc(NC(=O)Nc3ccc(C(F)(F)F)cc3)c2)s1 [Example 1, 1-(3-(4-(2-aminopyrimidin-4-yl)-2-(tert-butyl)thiazol-5-yl)phenyl)-3-(4-(trifluoromethyl)phenyl)urea]	225 nM	> 10000 nM
CCn1cc(-c2cccc(NC(=O)Nc3ccc(C(C)C)cc3)c2)c(-c2ccncc2)n1 [Example 6, 1-(3-(1-ethyl-3-(pyridin-4-yl)-1H-pyrazol-4-yl)phenyl)-3-(4-isopropylphenyl)urea]	1.18 nM	449 nM
CCn1cc(-c2cccc(NC(=O)Nc3cccc(F)c3)c2)c(-c2ccncc2)n1 [Example 14, 1-(3-(1-ethyl-3-(pyridin-4-yl)-1H-pyrazol-4-yl)phenyl)-3-(3-fluorophenyl)urea]	39.3 nM	–
CCn1cc(-c2cccc(NC(=O)Nc3cccc(C)c3)c2)c(-c2ccncc2)n1 [Example 11, 1-(3-(1-ethyl-3-(pyridin-4-yl)-1H-pyrazol-4-yl)phenyl)-3-(m-tolyl)urea]	4.98 nM	3470 nM
CCn1cc(-c2cccc(NC(=O)Nc3ccc(F)c(C(F)(F)F)c3)c2)c(-c2ccncc2)n1 [Example 8, 1-(3-(1-ethyl-3-(pyridin-4-yl)-1H-pyrazol-4-yl)phenyl)-3-(4-fluoro-3-(trifluoromethyl)phenyl)urea]	4.31 nM	2540 nM

Further lines, results first:

IC50 [1]	IC50 [2]	Compound
–	233 nM	CC(C)n1cc(-c2cccc(NC(=O)Nc3ccc(I)c(F)c3)c2)c(-c2ccncc2)n1 [Example 24, 1-(3-fluoro-4-iodophenyl)-3-(3-(1-isopropyl-3-(pyridin-4-yl)-1H-pyrazol-4-yl)phenyl)urea]
–	166 nM	CCn1cc(-c2cccc(NC(=O)Nc3ccc(I)cc3F)c2)c(-c2ccncc2)n1 [Example 17, 1-(3-(1-ethyl-3-(pyridin-4-yl)-1H-pyrazol-4-yl)phenyl)-3-(2-fluoro-4-iodophenyl)urea]
1600 nM	–	CC(C)(C)n1cc(-c2cccc(NC(=O)Nc3ccc(C(F)(F)F)cc3)c2)c(-c2ccncc2)n1 [Example 25, 1-(3-(1-(tert-butyl)-3-(pyridin-4-yl)-1H-pyrazol-4-yl)phenyl)-3-(4-(trifluoromethyl)phenyl)urea]
–	571 nM	CCn1cc(-c2cccc(NC(=O)Nc3ccc(Br)c(F)c3)c2)c(-c2ccnc(N)n2)n1 [Example 27, 1-(3-(3-(2-aminopyrimidin-4-yl)-1-ethyl-1H-pyrazol-4-yl)phenyl)-3-(4-bromo-3-fluorophenyl)urea]
–	85 nM	CCn1cc(-c2cccc(NC(=O)Nc3ccc(Br)cc3)c2)c(-c2ccncc2)n1 [Example 21, 1-(4-bromophenyl)-3-(3-(1-ethyl-3-(pyridin-4-yl)-1H-pyrazol-4-yl)phenyl)urea]
–	83 nM	CCn1cc(-c2cccc(NC(=O)Nc3ccc(Br)c(F)c3)c2)c(-c2ccncc2)n1 [Example 22, 1-(4-bromo-3-fluorophenyl)-3-(3-(1-ethyl-3-(pyridin-4-yl)-1H-pyrazol-4-yl)phenyl)urea]
3.5 nM	362 nM	CCn1cc(-c2cccc(NC(=O)Nc3ccc(C(F)(F)F)cc3)c2)c(-c2ccnc(N)n2)n1 [Example 28, 1-(3-(3-(2-aminopyrimidin-4-yl)-1-ethyl-1H-pyrazol-4-yl)phenyl)-3-(4-(trifluoromethyl)phenyl)urea]
–	2080 nM	CCn1cc(-c2cccc(NC(=O)Nc3cccc(I)c3)c2)c(-c2ccncc2)n1 [Example 20, 1-(3-(1-ethyl-3-(pyridin-4-yl)-1H-pyrazol-4-yl)phenyl)-3-(3-iodophenyl)urea]
–	541 nM	CCn1cc(-c2cccc(NC(=O)Nc3ccc(Br)cc3F)c2)c(-c2ccncc2)n1 [Example 18, 1-(4-bromo-2-fluorophenyl)-3-(3-(1-ethyl-3-(pyridin-4-yl)-1H-pyrazol-4-yl)phenyl) urea]
6 nM	1730 nM	CC(C)n1cc(-c2cccc(NC(=O)Nc3ccc(C(F)(F)F)cc3)c2)c(-c2ccncc2)n1 [Example 23, 1-(3-(1-isopropyl-3-(pyridin-4-yl)-1H-pyrazol-4-yl)phenyl)-3-(4-(trifluoromethyl)phenyl)urea]
–	42 nM	CCn1cc(-c2cccc(NC(=O)Nc3ccc(I)c(F)c3)c2)c(-c2ccncc2)n1 [Example 19, 1-(3-(1-ethyl-3-(pyridin-4-yl)-1H-pyrazol-4-yl)phenyl)-3-(3-fluoro-4-iodophenyl)urea]
